# Reference: patent US9169509B2, “Topoisomerase 2b as a predictor of susceptibility to anthracycline-induced cardiotoxicity” (Board of Regents, The University of Texas System, priority 2013, dated 2015)
# Tests used:
# [1] = tested on: heart sections; experiment: Masson's Trichrome staining of heart sections (fibrosis); format: in vivo, mouse
# Description: FIGS. 6a-e: a. Schematic of chronic doxorubicin treatment protocol. All mice received a baseline MRI scan first. Tamoxifen was then administered by gavage at a dose of 25 mg/kg, once a day for 5 consecutive days. […] After the last MRI scan, mice were sacrificed and the hearts were removed and examined for histological changes and Top2b expression. b. RT-qPCR of genes involved in mitochondrial biogenesis. Mice were treated with doxorubicin (5 mg/kg) once a week for 5 weeks. Cardiomyocytes were isolated from the heart 72 hr after the last dose. Total RNA was extracted for RTqPCR analysis of genes important for the function and structure of the mitochondria. For each mRNA shown relative expression is graphed for Top2b^+/+ Control, Top2b^+/+ Dox, Top2b^Δ/Δ Control, and Top2b^Δ/Δ Dox (from left to right). One way ANOVA was used to determine statistical significance (p<0.05). Error bars indicated STDEV. The asterisks indicated a significant difference (p<0.05). c. ROS production and quantitation. Representative images of heart sections stained with Dihydroethidium (DHE), which, after oxidation, intercalated into DNA and stained the nuclei red. Mice were treated with doxorubicin (5 mg/kg) once a week for 5 weeks. […] The numbers of DHE-positive and total nuclei were counted as described and the percentage of DHE-positive nuclei was determined. […]
# [2] = tested on: PGC-1α and PGC-1β promoters; experiment: Chromatin immunoprecipitation with Top2b antibody at PGC-1 promoters; format: cell-based, mouse; conditions: HL-1 cells (DOX 2 h) and cardiomyocytes isolated 16 h after 25 mg/kg ip
# Description: FIGS. 7a-e: a, b. PGC-1 expression in HL-1 cells. […] Expression was measured with RT-qPCR. c, d. CHiP analysis in HL-1 cells. HL-1 cardiomyocytes were treated with (right bars) or without (left bars) DOX ([…]) for 2 hrs and isolated for ChIP using the Top2β antibody. The eluted DNA and Input were PCR amplified to detect specific promoter regions represented in the schematic above the respective ChIP data. In the presence of DOX, the Top2b is readily bound to Region #1 and Region #3 of the PGC-1α promoter (c) and Region #1 and #2 of the PGC-1β promoter (d). e. CHiP study in cardiomyocytes. Cardiomyocytes were isolated from control (n=4) and Dox-treated (n=4) mice and subject to ChIP with the Top2b antibody. The data represent real-time PCR ratios for the fold-enrichment of Top2b at the respective promoters. Top2β binds the Region #1 of the PGC-1α and PGC-1β promoters efficiently following Dox treatment.
# HL-1 cells were treated with or without DOX (1 μM) for 2 h and subsequently evaluated using the ChIP protocol as previously published (24-26). For ChIP assay on isolated cardiomyocytes, mice were treated with doxorubicin (25 mg/kg, ip) or drug vehicle. […] For each individual treatment sample, the eluted ChIP product was normalized to the Input product to rule out differences in total DNA quantities between control and Dox-treatment samples. […]
# [3] = tested on: heart sections; experiment: Detection of reactive oxygen species (DHE staining) in heart sections; format: in vivo, mouse
# Description: The hearts were isolated on ice, embedded in OCT, snap frozen in liquid nitrogen, sectioned into 5 μm-thick slices, and ROS generation was detected immediately by using dihydroethidium (DHE). Doxorubicin treatment generated ROS in the hearts of Top2b^+/+ mice, but this was reduced by 70% in Top2b^Δ/Δ mice (FIGS. 5b,c).
# The hearts were perfused with ice-cold PBS and quickly removed. The hearts were embedded in OCT and snap-frozen in liquid nitrogen. Series of 5 μm-thick slices were sectioned from the heart immediately. Tissue sections were then stained with Dihydroethidium (DHE, Invitrogen) for 15 m, followed by staining with DAPI (1 μg/ml, Sigma). Tissue slides were sealed and examined with an Olympus epifluorescence microscope (Model BX51). The numbers of DHE-positive nuclei and the total nuclei were counted in 5 microscopic fields (400×) per section. Five heart sections from each mouse were counted to determine the percentage of the DHE-positive nuclei.
smiles,measurement,setting,value
COc1cccc2c1C(=O)c1c(O)c3c(c(O)c1C2=O)C[C@@](O)(C(=O)CO)C[C@@H]3O[C@H]1C[C@H](N)[C@H](O)[C@H](C)O1 [doxorubicin],Fibrosis in the hearts (Masson's Trichrome),"[1]; Top2b+/+ mice, doxorubicin 5 mg/kg once a week for 5 weeks, hearts 72 h after last dose",patchy fibrosis
same,"Fibrosis and other pathological changes after chronic treatment, relative to Top2b+/+ hearts","[1]; Top2bΔ/Δ hearts, chronic doxorubicin 5 mg/kg once a week for 5 weeks",much less so
same,Top2b binding to the promoter of the PGC-1α and PGC-1β genes in the presence of doxorubicin (ChIP),[2],binds avidly
same,Reduction of doxorubicin-generated ROS in Top2bΔ/Δ mice versus Top2b+/+ mice,[3]; 16 hrs after doxorubicin 25 mg/kg,70%
same,ROS generation (DHE),"[3]; Top2b+/+ hearts, chronic doxorubicin 5 mg/kg once a week for 5 weeks",generation of ROS
same,ROS generation in the hearts (DHE-positive nuclei),"[3]; Top2b+/+ mice, 16 hrs after doxorubicin 25 mg/kg",generated ROS
